Experimental data from a melting point compilation (Tetko et al.; mined from patent text by program, amines drawn as free bases though some values may be those of a salt).

| SMILES | melting point |
| --- | --- |
| CCOC(=O)Cc1ccc(-c2nc(COc3ccc(COc4nn(-c5ccccc5)cc4/C=C/c4csc(COC(=O)c5ccccc5)n4)cc3OC)c(C)o2)cc1 | 116 to 117 °C |
| Cc1ccc(CNc2ncnc3c(N4CCOCC4)nc(N4CCC(N(C)C)CC4)nc23)cc1 | 142 to 144 °C |
| N#Cc1c[nH]c2c(NS(=O)(=O)c3cccc(Cl)c3)cccc12 | 204 to 205 °C |
| CCc1cccc(C)c1CNc1cc(C(=O)O)cc2c1nc(COC)n2C | 275 to 278 °C |
| O=S(=O)(Cc1ccccc1)On1nnc2ccccc21 | 65 to 67 °C |
| COc1cc(N2CCC(Br)C2=O)ccc1Cl (centres undefined) | 113 to 115 °C |
| CCOC(=O)C1(NC(C)=O)CC2c3cc(C)ccc3Oc3ccccc3N2C1=O (centres undefined) | 104 to 108 °C |
| O=C1Nc2ccncc2C(c2ccccc2)N1C1CCN(Cc2ccccc2)CC1 (centres undefined) | 209 to 210 °C |
| CC(=O)N1CCC(O)(c2ccccc2C)CC1 | 145 to 146 °C |
| O=C1OCc2c1nc1ccc3c(c1c2-c1ccc2c(c1)OCO2)OCO3 | 272 to 274 °C |
| CC(=O)NC1CCc2c(C)cc(C)c(O)c21 (centres undefined) | 131 to 132 °C |
| Cc1ccc(S(=O)(=O)OCC2Cc3cccc(Nc4ccc(Cl)cc4)c3O2)cc1 (centres undefined) | 132 to 134 °C |
| Cc1ccccc1NNC(=O)c1ccccc1C(F)(F)F | 55 to 57 °C |
| O=C(O)C(=O)c1ccc(OCCc2ccccc2)cc1 | 72 to 73 °C |
| N#CC1=C(c2ccccc2)Nc2ccccc2S1(=O)=O | 286 to 289 °C |
| CC(=O)N1CC(=O)N/C(=C\c2ncoc2C(C)(C)C)C1=O | 145 to 147 °C |
| O=Cc1ccc(OCc2ccccc2)c(OCc2ccccc2)c1OCc1ccccc1 | 73 to 74 °C |
| CCC(C)C(=O)Nc1nn(C)c2c1sc1cc(N)ccc12 (centres undefined) | 196 to 197 °C |
| CS(=O)(=O)c1ccc(-n2ncc(C#N)c2-c2ccc(-c3ccco3)cc2)cc1F | 153 to 157 °C |
| Nc1cccc(NC(=O)C(F)(F)C(F)(F)F)c1 | 86 to 88 °C |
| CNC(=O)c1ncc2[nH]c3cccc(Oc4ccc(Cl)cc4)c3c2c1COC | 236 °C |
| COc1cc(C)c(O)c2ccccc12 | 102 to 103 °C |
| O=C(/C=C/C=C/c1ccccc1Cl)NCCCCCC(=O)NO | 129 to 131 °C |
| Clc1ccc2c(c1)Cc1ccccc1CN2 | 137 to 141 °C |
| CCOC(=O)c1nc(-c2ccsc2)n(-c2cccc(Cl)c2F)c1-c1ccc(F)c(Cl)c1 | 207 to 209 °C |

| SMILES | melting point |
| --- | --- |
| O=C(O)CCCCCOc1ccc2sc(-c3ccccn3)nc(=O)c2c1 | 205 to 206 °C |
| COC(=O)C(C)(SC)c1ccc(N2C(=O)c3ccccc3C2=O)c(Cl)c1 (centres undefined) | 141 to 142 °C |
| O=C(O)c1ccccc1CCc1n[nH]c2c1c(=O)n(-c1ccccc1)c1ncccc21 | 302 to 308 °C |
| Cc1oc(-c2ccccc2)nc1COc1ccc(CCCCc2nnn[nH]2)cn1 | 104 to 105 °C |
| CC(=O)c1ccc(OCCCOc2cc([N+](=O)[O-])c(C)cc2Br)c(CCC(F)(F)F)c1O | 106 to 109 °C |
| Cc1cc(C)c2cc(C3CCNCC3)sc2c1 | 83 to 88 °C |
| O=[N+]([O-])c1ccc(Cl)c(NC(=S)NCCCO)c1 | 127 °C |
| Cc1nc2ccc(C(C)(C)CNC=O)cc2[nH]1 | 57 to 60 °C |
| CN(C)C1CCCC1Cc1cccc(-c2cccc(N)n2)c1 (centres undefined) | 60 to 80 °C |
| NC(=O)Cc1ccc(OCC(O)CNCCCn2cnc3ccccc32)cc1 (centres undefined) | 92 to 96 °C |
| Cc1ccccc1-c1c(NC(=O)Nc2c(C)cccc2C(C)C)c(=O)oc2ccc(Cl)cc12 | 237 to 238 °C |
| O=C(NC1CCCCC1)NC1(N=NC2(NC(=O)NC3CCCCC3)CCCCC2)CCCCC1 | 105 to 109 °C |
| CC(=O)Oc1ccc(C(=O)NNC(=O)c2occ(-c3ccccc3)c2-c2ccccc2)cc1C#N | 131 to 133 °C |
| COC(=O)CCCCCOc1ccc(NC(=O)COCc2ccccc2)cc1 | 46 to 49 °C |
| CC(=O)c1ccc(SC(=O)N(C)C)cc1OCC(=O)O | 173 to 174 °C |
| N#CCC1(C#N)CCC2(CC1)OCCO2 | 137 °C |
| CC(C#N)c1ccc(CCc2ccccc2C(=O)O)cc1 (centres undefined) | 73 °C |
| CCCc1nn(C)c2c(=O)n(CCCc3cccc(OC(C)(CC)C(=O)O)c3)c(C)nc12 (centres undefined) | 136 to 138 °C |
| CC1CCC(C(=O)Nc2ccccc2)=C2NC=C(C(=O)O)C(=O)N21 (centres undefined) | 200 to 201 °C |
| NC(=O)c1sc2nc(N3CCC(NCC(O)c4cccc5c4OCO5)CC3)cc(C(F)(F)F)c2c1N (centres undefined) | 221 to 223 °C |
| O=C1C2CCCCN2C(=O)N1c1c(F)cc(Cl)c2nc(Cl)sc12 (centres undefined) | 168 to 170 °C |
| CN1CCN(C(=O)[C@H](CC(N)=O)NC(=O)CCc2ccc(OCc3ccccc3)cc2OCc2ccccc2)CC1 | 121 to 123 °C |
| COc1ccc2c(c1)c(CC(=O)OCC(=O)O)c(C)n2C(=O)c1ccc(F)c(F)c1 | 128 to 129 °C |
| Cn1cc(-c2cccc(C(F)(F)F)c2)c(=O)c(-n2cncn2)c1 | 181 to 183 °C |
| CC(C)CNC(=O)COc1ccn2nc(-c3ccccc3)c(-c3ccc(=O)n(C(C)C)n3)c2c1 | 168 °C |

| SMILES | melting point |
| --- | --- |
| CC(C)c1nc2c(N)nc3ccccc3c2n1CCOc1ccccc1 | 229 to 231 °C |
| O=C(O)Cc1ccc2c(c1)CCCOO2 | 99 to 101 °C |
| COc1ccc(-n2nnnc2C(F)(F)F)cc1C1=CC2(CCCN(C(=O)c3ccccc3)C2)OC1 (centres undefined) | 154 to 156 °C |
| COc1ccc(C(=O)c2c(-c3ccc(O)cc3)sc3cc(O)ccc23)cc1 | 138 to 140 °C |
| COC(=O)C[C@H](CC(=O)O[Si](C)(C)C(C)(C)C)O[Si](C)(C)C(C)(C)C | 44 to 46 °C |
| COc1cccc2c(Nc3ccc(O)cc3C)c(C(=O)C(C)C)cnc12 | 243 to 245 °C |
| NS(=O)(=O)c1ccc(N2N=C(C(F)(F)F)CC2c2ccccc2)cc1 (centres undefined) | 132 to 135 °C |
| O=C1C(c2cc3c(cc2O)OCC3)c2ccc(F)cc2N1C(c1ccccc1)c1ccccc1 (centres undefined) | 121 to 123 °C |
| CN(C)Cc1cccc(Cc2cnc(N[N+](=O)[O-])[nH]c2=O)c1 | 232 to 235 °C |
| CC1(C)CCC(C)(C)c2cc(C=O)c(F)cc21 | 119 to 120 °C |
| C=Cc1ccc(CSc2ccccc2C(=O)O)cc1 | 207 to 209 °C |
| Cc1nn(-c2ccc(C#N)c(Cl)c2)c(C)c1Cc1ccc(C(=O)N2CCC(O)CC2)cc1 | 153 to 154 °C |
| COc1cc(O)c2c(c1C)C(=O)SCC(=O)N[C@@H](c1nc(C)no1)COC2 | 194 to 196 °C |
| COc1cc(N)c(Cl)cc1C(=O)NCC1CCN(CCCCN)CC1 | 104 to 107 °C |
| COc1c(F)c(C)c(F)c(OC)c1CO | 80 to 81 °C |
| Nc1ccc(Nc2c(NCc3ccco3)cc(C(=O)O)cc2S(=O)(=O)Nc2ccccc2N)cc1 | 182 °C |
| CCCCc1nc(COC)c(C(=O)OC)n1Cc1ccc(-c2ccccc2C(=O)O)cc1 | 106 to 110 °C |
| O=C(O)C(CCCCc1ccccc1)Oc1cccc2ccccc12 (centres undefined) | 91 to 94 °C |
| CCCCc1ncc(C=O)n1Cc1ccc(C(=O)OC)c(Cl)c1Cl | 94 to 96 °C |
| CCCc1cc2c(cc1CC#N)OCO2 | 66 to 67 °C |
| CCOC(=O)c1cn(CCc2ccccc2)c2oc(CN3CCOCC3)cc2c1=O | 150 to 153 °C |
| CCOc1c(OC)cc(N)c2ncccc12 | 129 to 131 °C |
| COc1cc2[nH]c(C)c(C(=O)C(=O)N3CCC(C(=O)c4ccccc4)CC3)c2cc1OC | 188 to 190 °C |
| COc1ccc(C=Cc2cc3cc(Br)ccc3o2)cc1 | 190 to 194 °C |
| Cn1c(=O)n(Cc2ccc(F)cc2)c(=O)c2cc(C(=O)c3nc(-c4cccnc4)c4ccccn34)ccc21 | 207 °C |

| SMILES | melting point |
| --- | --- |
| C=CC(=O)OCc1cn(CCCCCCCCCCCCCCCC)nn1 | 72 to 73 °C |
| Cc1cccc(C)c1NC(=S)N1CC(Oc2cccc(C(F)(F)F)c2)C1 | 197 to 199 °C |
| O=C(c1ccc(F)cc1)C1CCN(CCCn2c(=S)[nH]c3ccccc3c2=O)CC1 | 200 °C |
| NC(=O)c1ccc(-c2cc3cc(C4=NNC(=O)CC4)ccc3[nH]2)cc1 | > 300 °C |
| O=S1(=O)NCCOc2ccc(Br)cc21 | 129 °C |
| CCCOC(Cc1ccc(OCCc2nc(C3CC3)oc2C)c2ccsc12)C(=O)O (centres undefined) | 61 to 63 °C |
| O=C(c1ccc(O)cc1)c1nn(C2CCCC2)c2c(C(F)(F)F)cccc12 | 225 to 226 °C |
| c1ccc(-c2nn3cnnc3c3ccccc23)cc1 | 198 to 199 °C |
| O=S(=O)(Cc1nnc(-c2ccc3c(c2)CCO3)o1)c1cccc(F)c1 | 93 to 94 °C |
| COc1ccc2[nH]ncc2c1Br | 178 to 180 °C |
| CCCCCCc1cnn(-c2ccccn2)c1O | 37 to 38 °C |
| C=Cc1cc2ccc(-c3ccc(C(=O)OC)cc3)cc2cc1C12CC3CC(CC(C3)C1)C2 | 221 to 222 °C |
| CC(=O)N(c1ccc(O)cc1)N1CCOCC1 | 183 to 184 °C |
| CN1CCCCC1CCc1ccccc1NC(=O)C#Cc1ccccc1 (centres undefined) | 104 to 106 °C |
| CC(Br)c1ccc(-n2nccn2)cn1 (centres undefined) | 72 to 73 °C |
| CC1CCCC(C)(C)C1C(O)c1ccc(C(N)=NO)c(F)c1 (centres undefined) | 154 to 156 °C |
| c1ccc(NC2CCCN2Cc2c[nH]c3ccccc23)cc1 (centres undefined) | 150 to 151 °C |
| COC(=O)COc1ccc2cc(-c3cnc(-c4cn(C)c5ccccc45)o3)ccc2c1 | 187 to 189 °C |
| C=CC(CC(=O)Nc1ccc(F)cc1)C(C)C (centres undefined) | 74 to 75 °C |
| Cc1c(Cc2cccc(C(F)(F)F)c2)sc2c(-c3cc(C(=O)O)ccn3)cccc12 | 271 to 272 °C |
| CCOC(=O)c1cnn2c(-c3cccc(C)n3)ccnc12 | 135 to 137 °C |
| NC(CCCCNC(=O)OCc1ccccc1)C(=O)Nc1cccc2ccccc12 (centres undefined) | 138 to 140 °C |
| CN(C)c1ccc(-n2c(N)nc3ccccc32)cc1-c1ccco1 | 208 to 210 °C |
| COc1cc(C(=O)N2Cc3ccc(C(=O)NCc4c(CO)cnc(C)c4O)n3Cc3ccccc32)ccc1-c1ccccc1C | 179 °C |
